Assay results published in ChEMBL document CHEMBL1148091, “Cyclopsychotride A, a biologically active, 31-residue cyclic peptide isolated from Psychotria longipes” (J Nat Prod, 1994).

Assays:
HT-29 = assay: Antagonist activity at neurotensin receptor in human HT-29 cells assessed as effect on NT-induced intracellular Ca2+ increase by spectrofluorimetry; type: functional, cell-based
[1] = Displacement of [125I]NT from neurotensin receptor in human HT-29 cells; type: cell-based

IC50 [1]: 3 µM
Compound: CC[C@H](C)[C@@H]1NC(=O)[C@@H]2CCCN2C(=O)[C@H](CS)NC(=O)CNC(=O)[C@H](CCC(=O)O)NC(=O)[C@H](CO)NC(=O)[C@H](CS)NC(=O)[C@H](C(C)C)NC(=O)[C@H](Cc2ccccc2)NC(=O)[C@H]([C@@H](C)CC)NC(=O)[C@@H]2CCCN2C(=O)[C@H](CS)NC(=O)[C@H]([C@H](C)O)NC(=O)[C@H](C(C)C)NC(=O)[C@H]([C@H](C)O)NC(=O)[C@H](C)NC(=O)[C@H](CC(C)C)NC(=O)[C@H](CC(C)C)NC(=O)CNC(=O)[C@H](CS)NC(=O)[C@H](CO)NC(=O)[C@H](CS)NC(=O)[C@H](CCCCN)NC(=O)[C@H](CO)NC(=O)[C@H](CCCCN)NC(=O)[C@H](C(C)C)NC(=O)[C@H](CS)NC(=O)[C@H](Cc2ccc(O)cc2)NC(=O)[C@H](CCCCN)NC(=O)[C@H](CC(N)=O)NC(=O)[C@H](CO)NC1=O [CYCLOPSYCHOTRIDE A]
Activity (HT-29): Dose-dependent effect
